What was measured:
[1] = biological target: GCN2 kinase (Homo sapiens, UniProt Q9P2K8); assay: GCN2 enzyme inhibition assay (Transcreener ADP2 fluorescence polarization); assay type: biochemical; conditions: 280 μM ATP
How it was run: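 Run at 25 °C in 25 mM Tris-HCl pH 7.5, 50 mM NaCl, 10 mM MgCl2, 1 mM DTT with 4 nM GCN2, 280 μM ATP and 200 μM (RS)7 peptide; compound (0–8 μM final) preincubated 10 min, reaction 1 h. ADP read by antibody/tracer FP; IC50 and Ki(app) from tight-binding fit.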

[2] = biological target: intracellular GCN2 (phosphorylation of the GCN2 substrate eIF2α) (Homo sapiens, UniProt Q9P2K8); assay: GCN2 cellular inhibition assay (AlphaScreen SureFire P-eIF2α Ser51, borrelidin-treated U2OS cells); assay type: cell-based; conditions: biomarker assay, phosphorylated eIF2α Ser51 in borrelidin-treated U2OS cells
Sequence of intracellular GCN2 (phosphorylation of the GCN2 substrate eIF2α) (Q9P2K8 whole entry): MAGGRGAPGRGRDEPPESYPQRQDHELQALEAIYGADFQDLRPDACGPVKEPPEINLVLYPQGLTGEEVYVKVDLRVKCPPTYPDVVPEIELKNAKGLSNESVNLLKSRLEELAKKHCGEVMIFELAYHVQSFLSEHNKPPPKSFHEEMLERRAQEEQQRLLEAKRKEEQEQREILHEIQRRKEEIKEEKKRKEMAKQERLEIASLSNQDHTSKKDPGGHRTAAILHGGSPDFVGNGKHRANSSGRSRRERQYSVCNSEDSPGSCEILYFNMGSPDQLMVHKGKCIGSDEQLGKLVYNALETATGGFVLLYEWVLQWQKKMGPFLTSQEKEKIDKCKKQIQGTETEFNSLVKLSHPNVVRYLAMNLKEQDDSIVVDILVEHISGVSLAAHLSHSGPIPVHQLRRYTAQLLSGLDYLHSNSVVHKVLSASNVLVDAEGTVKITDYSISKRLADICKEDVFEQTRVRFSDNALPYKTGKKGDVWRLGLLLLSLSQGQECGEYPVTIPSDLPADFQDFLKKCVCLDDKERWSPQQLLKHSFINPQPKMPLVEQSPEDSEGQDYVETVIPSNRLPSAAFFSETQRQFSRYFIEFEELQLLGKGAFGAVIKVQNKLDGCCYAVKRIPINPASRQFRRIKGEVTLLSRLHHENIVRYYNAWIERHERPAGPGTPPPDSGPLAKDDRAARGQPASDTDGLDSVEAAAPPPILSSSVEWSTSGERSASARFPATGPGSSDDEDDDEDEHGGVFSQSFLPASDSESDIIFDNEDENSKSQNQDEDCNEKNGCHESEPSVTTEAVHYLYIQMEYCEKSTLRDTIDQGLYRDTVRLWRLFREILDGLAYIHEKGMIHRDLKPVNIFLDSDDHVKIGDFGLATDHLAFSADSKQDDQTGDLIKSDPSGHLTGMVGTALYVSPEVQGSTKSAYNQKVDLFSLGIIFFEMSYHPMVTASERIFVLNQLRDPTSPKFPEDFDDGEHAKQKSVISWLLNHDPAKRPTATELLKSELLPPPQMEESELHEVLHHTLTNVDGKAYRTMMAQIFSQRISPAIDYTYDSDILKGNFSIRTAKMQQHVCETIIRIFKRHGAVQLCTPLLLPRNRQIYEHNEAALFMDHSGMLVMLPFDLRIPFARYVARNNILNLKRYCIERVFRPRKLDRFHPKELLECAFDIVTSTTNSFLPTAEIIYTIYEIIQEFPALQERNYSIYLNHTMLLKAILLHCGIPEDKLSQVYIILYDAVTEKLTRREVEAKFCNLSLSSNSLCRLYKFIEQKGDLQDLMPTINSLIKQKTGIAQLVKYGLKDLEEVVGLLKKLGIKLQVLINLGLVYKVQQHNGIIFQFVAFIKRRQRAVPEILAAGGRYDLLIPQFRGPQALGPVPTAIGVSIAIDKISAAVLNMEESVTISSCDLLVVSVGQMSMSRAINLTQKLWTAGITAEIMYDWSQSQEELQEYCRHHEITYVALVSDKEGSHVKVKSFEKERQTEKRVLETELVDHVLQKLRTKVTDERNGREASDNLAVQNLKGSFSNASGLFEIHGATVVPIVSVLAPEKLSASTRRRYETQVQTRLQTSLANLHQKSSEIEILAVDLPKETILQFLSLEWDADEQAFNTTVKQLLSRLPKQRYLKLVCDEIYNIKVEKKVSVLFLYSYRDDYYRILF
How it was run: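 U2OS, overnight attach; cpd 4-fold serial dil. from 40 μM final; borrelidin 10 μM, 1 h 37 °C/5% CO2; lyse; AlphaScreen P-eIF2α Ser51 (acceptor 2 h, donor overnight, RT, dark); % inhib. vs borrelidin-only.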

[3] = Enzyme activity for compounds of Formula IV, Ki(app), 25° C.
[4] = compounds of Formula II, 4 nM GCN2 kinase

Sequence of GCN2 kinase (Q9P2K8 whole entry): as above

SMILES	Ki [1, 3] [nM]	IC50 ([2]; compounds of Formula IV) [nM]	Ki [1, 4] [nM]	IC50 ([2]; compounds of Formula II) [nM]	IC50 [1, 4] [nM]
CC(C)c1nc(C2=CCCN(c3ccnc(-c4cnc5cnc(Br)cn45)n3)C2)c[nH]1 [IV-385, 6-Bromo-3-(4-(5-(2-isopropyl-1H-imidazol-4-yl)-3,6-dihydropyridin-1(2H)-yl)pyrimidin-2-yl)imidazo[1,2-a]pyrazine]	10 to 100	500 to 5000			
CC(NS(C)(=O)=O)C1CN(c2cc(-c3cnc4ccc(C(F)F)nn34)ccn2)CCO1 (stereo not drawn) [II-106, N-(1-(4-(4-(6-(Difluoromethyl)imidazo[1,2-b]pyridazin-3-yl)pyridin-2-yl)morpholin-2-yl)ethyl)methanesulfonamide]			< 10	500 to 5000	
Cc1[nH]ncc1[C@H]1CN(c2cc(-c3cnc4ccc(C(F)(F)F)nn34)ncn2)C[C@H](C)O1 [II-765, (2S,6S)-2-methyl-6-(5-methyl-1H-pyrazol-4-yl)-4-(6-(6-(trifluoromethyl)imidazo[1,2-b]pyridazin-3-yl)pyrimidin-4-yl)morpholine]				> 5000	10 to 1000
CS(=O)(=O)N1CCCC(c2cc(-c3cnc4ccc(C(F)F)nn34)ncn2)CC1 (single isomer, unassigned) [II-276, 6-(Difluoromethyl)-3-(6-(1-(methylsulfonyl)azepan-4-yl)pyrimidin-4-yl)imidazo[1,2-b]pyridazine]			10 to 1000	500 to 5000	
NS(=O)(=O)N1CCCN(c2ccnc(-c3cnc4cnc(C(F)F)cn34)n2)CC1 [IV-101, 4-(2-(6-(Difluoromethyl)imidazo[1,2-a]pyrazin-3-yl)pyrimidin-4-yl)-1,4-diazepane-1-sulfonamide]	100 to 1000	> 5000			
FC(F)c1cn2c(-c3nccc(N4CCC(c5ccccn5)C4)n3)cnc2cn1 (stereo not drawn) [IV-77, 6-(Difluoromethyl)-3-(4-(3-(pyridin-2-yl)pyrrolidin-1-yl)pyrimidin-2-yl)imidazo[1,2-a]pyrazine]	100 to 1000	> 5000			
CC1CC(CNS(C)(=O)=O)CN(c2cc(-c3cnc4ccc(C(F)F)nn34)ncn2)C1 (single isomer, unassigned) [II-436, N-((1-(6-(6-(Difluoromethyl)imidazo[1,2-b]pyridazin-3-yl)pyrimidin-4-yl)-5-methylpiperidin-3-yl)methyl)methanesulfonamide]			10 to 1000	500 to 5000	
CS(=O)(=O)N1C2CCC1CN(c1ccnc(-c3cnc4cnc(C(F)F)cn34)n1)C2 [IV-126, 6-(Difluoromethyl)-3-(4-(8-(methylsulfonyl)-3,8-diazabicyclo[3.2.1]octan-3-yl)pyrimidin-2-yl)imidazo[1,2-a]pyrazine]	100 to 1000	> 5000			
CC1CCCN(c2ccnc(-c3cnc4cnc(C(F)F)cn34)n2)C1C (stereo not drawn) [IV-134, 6-(Difluoromethyl)-3-(4-(2,3-dimethylpiperidin-1-yl)pyrimidin-2-yl)imidazo[1,2-a]pyrazine]	100 to 1000	> 5000			
CP(C)(=O)C1CC(c2cn[nH]c2)CN(c2ccnc(-c3cnc4cnc(C(F)(F)F)cn34)n2)C1 (single isomer, unassigned) [IV-592, (5-(1H-Pyrazol-4-yl)-1-(2-(6-(trifluoromethyl)imidazo[1,2-a]pyrazin-3-yl)pyrimidin-4-yl)piperidin-3-yl)dimethylphosphine oxide]	< 10	> 5000			
OCC1CCCN(c2ccnc(-c3cnc4cnc(C(F)(F)F)cn34)n2)C1 (stereo not drawn) [IV-439, (1-(2-(6-(Trifluoromethyl)imidazo[1,2-a]pyrazin-3-yl)pyrimidin-4-yl)piperidin-3-yl)methanol]	100 to 1000	> 5000			
Cc1[nH]ncc1C1CCCN(c2ccnc(-c3cnc4cnc(C(F)(F)F)cn34)n2)C1 (single isomer, unassigned) [IV-470, 3-(4-(3-(5-Methyl-1H-pyrazol-4-yl)piperidin-1-yl)pyrimidin-2-yl)-6-(trifluoromethyl)imidazo[1,2-a]pyrazine]	< 10	> 5000			
CC1CN(c2ccnc(-c3cnc4cnc(C(F)(F)F)cn34)n2)CC(c2c[nH]cn2)O1 (single isomer, unassigned) [IV-406, 2-(1H-Imidazol-4-yl)-6-methyl-4-(2-(6-(trifluoromethyl)imidazo[1,2-a]pyrazin-3-yl)pyrimidin-4-yl)morpholine]	10 to 100	> 5000			
FC(F)c1ccc2ncc(-c3ccnc(N4CCC5(CCNCC5)CC4)c3)n2n1 [II-161, 3-(2-(3,9-Diazaspiro[5.5]undecan-3-yl)pyridin-4-yl)-6-(difluoromethyl)imidazo[1,2-b]pyridazine]			10 to 1000	> 5000	
CC1C(c2cn[nH]c2)OCCN1c1ccnc(-c2cnc3cnc(Cl)cn23)n1 (single isomer, unassigned) [IV-9, 4-(2-(6-Chloroimidazo[1,2-a]pyrazin-3-yl)pyrimidin-4-yl)-3-methyl-2-(1H-pyrazol-4-yl)morpholine]	< 10	< 500			
CS(=O)(=O)NCC1CN(c2cc(-c3cnc4ccc(C(F)F)nn34)ncn2)CCC1O (stereo not drawn) [II-112, N-((1-(6-(6-(Difluoromethyl)imidazo[1,2-b]pyridazin-3-yl)pyrimidin-4-yl)-4-hydroxypiperidin-3-yl)methyl)methanesulfonamide]			< 10	500 to 5000	
CS(=O)(=O)NC[C@@H]1CN(c2nc(-c3cnc4cnc(C(F)(F)F)cn34)ns2)CCO1 [IV-705, (S)—N-((4-(3-(6-(trifluoromethyl)imidazo[1,2-a]pyrazin-3-yl)-1,2,4-thiadiazol-5-yl)morpholin-2-yl)methyl)methanesulfonamide]	100 to 1000	> 5000			
N#Cc1cn2c(-c3cccc(-c4cccc5[nH]ccc45)n3)cnc2cn1 [IV-234, 3-(6-(1H-Indol-4-yl)pyridin-2-yl)imidazo[1,2-a]pyrazine-6-carbonitrile]	10 to 100	> 5000			
CS(=O)(=O)CCC1CCCN(c2cc(-c3cnc4ccc(C(F)F)nn34)ncn2)C1 (stereo not drawn) [II-493, 6-(Difluoromethyl)-3-(6-(3-(2-(methylsulfonyl)ethyl)piperidin-1-yl)pyrimidin-4-yl)imidazo[1,2-b]pyridazine]			10 to 1000	500 to 5000	
O=C1NCCC12CCN(c1ccnc(-c3cnc4cnc(C(F)F)cn34)n1)C2 (stereo not drawn) [IV-69, 7-(2-(6-(Difluoromethyl)imidazo[1,2-a]pyrazin-3-yl)pyrimidin-4-yl)-2,7-di azaspiro[4.4]nonan-1-one]	100 to 1000	> 5000			
O=C1CCN(c2cc(-c3cnc4ccc(C(F)F)nn34)ccn2)CCN1 [II-164, 1-(4-(6-(Difluoromethyl)imidazo[1,2-b]pyridazin-3-yl)pyridin-2-yl)-1,4-diazepan-5-one]			10 to 1000	500 to 5000	
NC(=O)[C@H]1CCCN(c2cc(-c3cnc4ccc(Cl)nn34)ccn2)C1 [II-189, (S)-1-(4-(6-Chloroimidazo[1,2-b]pyridazin-3-yl)pyridin-2-yl)piperidine-3-carboxamide]			10 to 1000	500 to 5000	
CC1C(CNS(C)(=O)=O)C(C)(O)C(C)CN1c1cc(-c2cnc3ccc(C(F)F)nn23)ncn1 (stereo not drawn) [II-618, N-((1-(6-(6-(Difluoromethyl)imidazo[1,2-b]pyridazin-3-yl)pyrimidin-4-yl)-4-hydroxy-2,4,5-trimethylpiperidin-3-yl)methyl)methanesulfonamide]			< 10	< 500	
O=C1OC2(CC2)[C@@H]2CN(c3cc(-c4cnc5ccc(C(F)(F)F)nn45)ccn3)CCN12 [II-226, (S)-7′-(4-(6-(Trifluoromethyl)imidazo[1,2-b]pyridazin-3-yl)pyridin-2-yl)tetrahydrospiro[cyclopropane-1,1′-oxazolo[3,4-a]pyrazin]-3′(5′H)-one]			10 to 1000	500 to 5000	
Cc1n[nH]cc1C1CCCN(c2ccnc(-c3cnc4cnc(C(F)F)cn34)n2)C1 (single isomer, unassigned) [IV-469, 6-(Difluoromethyl)-3-(4-(3-(3-methyl-1H-pyrazol-4-yl)piperidin-1-yl)pyrimidin-2-yl)imidazo[1,2-a]pyrazine]	10 to 100	> 5000			
O=S1(=O)CCN(c2cc(-c3cnc4ccc(C(F)F)nn34)ccn2)CC1 [II-77, 4-(4-(6-(Difluoromethyl)imidazo[1,2-b]pyridazin-3-yl)pyridin-2-yl)thiomorpholine 1,1-dioxide]			10 to 1000	> 5000	
CS(=O)(=O)NCC1CN(c2cc(-c3cnc4ccc(Cl)nn34)ccn2)CCO1 (stereo not drawn) [II-184, N-((4-(4-(6-Chloroimidazo[1,2-b]pyridazin-3-yl)pyridin-2-yl)morpholin-2-yl)methyl)methanesulfonamide]			10 to 1000	500 to 5000	
CC1CC(C(N)=O)C(C)N(c2ccnc(-c3cnc4cnc(C(F)(F)F)cn34)n2)C1 (single isomer, unassigned) [IV-501, 2,5-Dimethyl-1-(2-(6-(trifluoromethyl)imidazo[1,2-a]pyrazin-3-yl)pyrimidin-4-yl)piperidine-3-carboxamide]	< 10	500 to 5000			
CN(C)C1CN(c2cc(-c3cnc4ccc(C(F)F)nn34)ncn2)CC(CNS(C)(=O)=O)C1(F)F (stereo not drawn) [II-260, N-((1-(6-(6-(Difluoromethyl)imidazo[1,2-b]pyridazin-3-yl)pyrimidin-4-yl)-5-(dimethylamino)-4,4-difluoropiperidin-3-yl)methyl)methanesulfonamide]			10 to 1000	500 to 5000	
CN(C1CCCN(c2ccnc(-c3cnc4cnc(C(F)F)cn34)n2)C1)S(C)(=O)=O (stereo not drawn) [IV-168, N-(1-(2-(6-(Difluoromethyl)imidazo[1,2-a]pyrazin-3-yl)pyrimidin-4-yl)piperidin-3-yl)-N-methylmethanesulfonamide]	100 to 1000	> 5000			

Source: patent publication US10988477B2 (Merck Patent GmbH, priority 2018, dated 2021)
